Data reported in patent publication EP0895778A2, “Cosmetic composition” (Ajinomoto Co., Inc., priority 1997, dated 1999).
Structures can show the parent of a compound that is named as a salt.

Tests used:
skin = type: in vivo, New Zealand white rabbits; conditions: 0.3 ml of aqueous 1 % solution, patch 24 hours, observed 24 hours; four male rabbits
Method: (§1) The primary irritation of the skin and ocular mucous membranes by some test compounds mentioned below was checked according to the test methods mentioned below.
A patch test plaster, into which 0.3 ml of an aqueous 1 % solution of a test compound had been infiltrated, was airtightly stuck on each of four male New Zealand white rabbits and kept as such for 24 hours. […] The compounds tested were evaluated on the basis of the following criteria.

ocular mucous membranes = type: in vivo, New Zealand white rabbits; conditions: 0.1 ml aqueous solution dropped into eyelid bag, checked 24 hours after; four male rabbits
Method: as §1
The lower eyelids of each of four male New Zealand white rabbits were formed into bags, into which was dropped 0.1 ml of an aqueous surfactant solution, and the upper and lower eyelids were lightly ligated. 24 hours after the dropping, the irritation of the ocular mucous membranes of each rabbit was checked according to the Draize's points mentioned below. The compound tested was evaluated on the basis of the following criteria.

Structure (SMILES): CCCCCCCCCCCCOCC(O)CNCCCC[C@H](N)C(=O)O (stereo partly drawn) [Compound of Production Example 5, Nε-(2-hydroxy-3-dodecyloxy)propyl-L-lysine hydrochloride]
- Primary Skin Irritation (skin): Minor (Less than 2)
- Primary Mucous Membrane Irritation (ocular mucous membranes): Minor (Less than 10)

Structure (SMILES): CCCCCCCCCCCCCCCCCC[N+](C)(C)C.[Cl-] [Stearyltrimethylammonium Chloride, reference compound]
- Primary Skin Irritation (skin): Heavy (4 or more)
- Primary Mucous Membrane Irritation (ocular mucous membranes): Moderate (20 to less than 50)

Structure (SMILES): CCCCCCCCCCC(O)CN[C@@H](CCCNC(=N)N)C(=O)O.Cl (stereo partly drawn) [Compound of Production Example 7, N-(2-hydroxydodecyl)-L-arginine hydrochloride]
- Primary Skin Irritation (skin): Minor (Less than 2)
- Primary Mucous Membrane Irritation (ocular mucous membranes): Minor (Less than 10)
